Test system: retroviruses
Details: combined with AZT, ddl, Saquinavir and/or ribavirin

## [(R)-2-(N,N-Dimethylamino)ethylthio-Sar]^3 -cyclosporin A [Example 2]
  effect in combination: particularly advantageous effect

From patent publication US5965527A, “Cyclosporin compounds, their preparation and the pharmaceutical compositions which contain them” (Rhone-Poulenc Rorer, S.A., priority 1996, dated 1999)
